The subject of series [1] is mock-infected MT-4 cells. The series is described as follows: Cytotoxicity in mock-infected MT-4 cells, MTT method. It is filed as cell-based. The settings on record: human, 5 days. As for the experimental part: (§1) The MTT method was described briefly as follows: stock solutions (10×final concentration) of test compounds were added in 25 μL volumes to two series of triplicate wells in order to allow simultaneous evaluation of the effects on mock- and HIV-infected cells. Using a Biomek 3000 robot (Beckman Instruments, Fullerton, Calif.), serial five-fold dilutions of the test compounds (final 200 μL volume per well) were made directly in flat-bottomed 96-well microtiter trays, including untreated control HIV-1 and mock-infected cell samples for each sample. HIV-1 (IIIB) and mutant HIV-1 strains stock (50 μL at 100-300 CCID50) or culture medium was added to either the infected or mock-infected wells of the microtiter tray. Mock-infected cells were used to evaluate the effect of test compounds on uninfected cells to assess cytotoxicity. Exponentially growing MT-4 cells were centrifuged for 5 min at 1000 rpm and the supernatant was discarded. The MT-4 cells were resuspended at 6×10^5 cells/mL, and 50 μL aliquots were transferred to the microtiter tray wells. At five days after infection, the viability of mock- and HIV-infected cells was determined spectrophotometrically by means of MTT assay.
(§2) The MTT assay is based on the reduction of yellow-colored MTT (Acros Organics, Geel, Belgium) by mitochondrial dehydrogenase of metabolically active cells to form a blue-purple formazan that can be measured spectrophotometrically. The absorbances were read in an eight-channel computer-controlled photometer, at the wavelengths of 540 and 690 nm. All data were calculated using the median optical density (OD) value of three wells.
A general note: Tetrazolium dyes change colour on reduction, which living cells bring about.

Series [2] concerns WT HIV-1 strain (IIIB). The series is described as follows: Anti-HIV-1 activity in MT-4 cells, MTT method, wild-type strain IIIB. It is filed as cell-based. The settings on record: for SI IIIB: selectivity index, ratio of CC50/EC50, strain IIIB. As for the experimental part:
(§3) Antiviral potency was evaluated in MT-4 cell cultures infected with WT HIV-1 strain (IllB) as well as cells infected with a panel of NNRTI-resistant double-mutant strain K103N+Y181C (RES056).
(§4) Selected compounds were screened for inhibitory activity against HIV-1 using MTT method as describe previously by Christophe. Pannecouque et al. Nat. Protoc. […] And in vitro anti-HIV activity of compounds were supported by Rega Institute for Medical Research. The MTT assay is based on the reduction of the yellow colored 3-(4,5-dimethylthiazol-2-yl)-2,5-diphenyltetrazolium bromide (MTT) by mitochondrial dehydrogenases of metabolically active cells to a blue formazan which can be measured spectrophotometrically. Tested optical density served as an indicator for live cells, and survival rate can be concluded by testing the optical density of 540 nm and 690 nm. MT-4 cells infected with HIV-1 can only survive for 5 to 7 days without any treatment, but when HIV-1 inhibitors were added, they can protect MT-4 cell from cytopathic. Serial solution of compounds was added to MT-4 cells after infected with HIV-1, MTT method was used to detect the survival rate after culture for 5 to 7 days.
(§5) (1) MT-4 cells infected with HIV-1 viral strains (IIIB, Y181C/K103N) were provided by Rega Institute for Medical Research, Katholieke Universiteit Leuven, Belgium.
(§6) (3) Preparation of compounds: Stock solutions (10×final concentration) of test compounds is diluted with double distilled H2O for 5 folds and 5 concentrations of one compound are prepared.
(§7) (5) Test method (MTT method): Serial five-fold dilutions of test compounds were added to cultured MT-4 cells infected with HIV-1, after 5 to 7 days, MTT was added and cultured for a few hours.
as §1, with “HIV-1 (IIIB) and mutant HIV-1 strains stock (50 μL at 100-300 CCID50) or culture medium was added to either the infected or mock-infected wells of the microtiter tray.” left out, “The MT-4 cells were resuspended at 6×10^5 cells/mL, and 50 μL aliquots were transferred to the microtiter tray wells.” left out
as §2

The subject of series [3] is NNRTI-resistant double-mutant strain K103N+Y181C (RES056). The series is described as follows: microbe, parasite or virus in culture. It is filed as cell-based, HIV-1. Particulars: for EC50: Human immunodeficiency virus 1, MT4, read-out: EC50 RES056; for SI RES056: selectivity index, ratio of CC50/EC50, strain RES056. As for the experimental part: as §3, §4, §5, §6, §7
as §1, with “HIV-1 (IIIB) and mutant HIV-1 strains stock (50 μL at 100-300 CCID50) or culture medium was added to either the infected or mock-infected wells of the microtiter tray.” left out, “The MT-4 cells were resuspended at 6×10^5 cells/mL, and 50 μL aliquots were transferred to the microtiter tray wells.” left out
as §2

Series [4] can be described thus: Cytotoxicity in mock-infected MT-4 cells, MTT method. It is filed as cell-based. The settings on record: human, CC50. As for the experimental part:
as §1, §2

Regarding `Cc1cc(C#N)cc(C)c1Oc1nc(NC2CCN(Cc3ccc(S(C)(=O)=O)cc3)CC2)nc2c1SCC2` [Compound A3, 3,5-dimethyl-4-((2-((1-(4-(methylsulfonyl)benzyl)piperidin-4-yl)amino)-6,7-dihydrothieno[3,2-d]pyrimidin-4-yl)oxy)benzonitrile], it took 11900 ± 5570 nM to reach half-maximal cytotoxicity in series [1] (CC50). The “SI IIIB” value in series [2] came out at 2025. In addition, in series [3], the 50% effective concentration (EC50) was found to be 46.6 ± 7.8 nM and the “SI RES056” value is reported as 257.
The like results for `Cc1cc(C#N)cc(C)c1Oc1nc(NC2CCN(Cc3ccc([N+](=O)[O-])cc3)CC2)nc2c1SCC2` [Compound A5, 3,5-dimethyl-4-((2-((1-(4-nitrobenzyl)piperidin-4-yl)amino)-6,7-dihydrothieno[3,2-d]pyrimidin-4-yl)oxy)benzonitrile] were, in that order, 6180 ± 1740 nM, 770, 495 ± 1.3 nM and 12.
The molecule `Cc1cc(C#N)cc(C)c1Oc1nc(NC2CCN(Cc3ccc(C(N)=O)cc3)CC2)nc2c1COC2` [Compound B2, 4-((4-((4-(4-cyano-2,6-dimethylphenoxy)-5,7-dihydrofuro[3,4-d]pyrimidin-2-yl)amino)piperidin-1-yl)methyl)benzamide] gave a CC50 at 5 days in series [4] of over 200000 nM. In addition, the CC50 in series [1] is over 250000 nM. Also, the EC50 in series [2] (Human immunodeficiency virus 1, IIIB, MT4, read-out: EC50 IIIB) is 2 nM; in series [3] it was 41.5 ± 9.9 nM. The “SI RES056” value in series [3] was over 6039.
`Cc1cc(C#N)cc(C)c1Oc1nc(NC2CCN(Cc3ccc(S(N)(=O)=O)cc3)CC2)nc2c1CCC2` [Compound C1, 4-((4-((4-(4-cyano-2,6-dimethylphenoxy)-6,7-dihydro-5H-cyclopenta[d]pyrimidin-2-yl)amino)piperidin-1-yl)methyl)benzenesulfonamide] gave a CC50 at 5 days in series [4] of over 200000 nM. The molecule further returned a CC50 in series [1] of over 234000 nM. Also, the “fold more potent than ETR” value in series [2] (EC50 against HIV-1 IIIB compared with ETR) is on record as “about 4.6 fold”. In addition, in series [3], the EC50 is 25.8 nM and the “SI RES056” value is reported as over 9091.
`Cc1cc(C#N)cc(C)c1Oc1nc(NC2CCN(Cc3ccc(S(N)(=O)=O)cc3)CC2)nc2c1CSC2` [Compound D1, 4-((4-((4-(4-cyano-2,6-dimethylphenoxy)-5,7-dihydrothieno[3,4-d]pyrimidin-2-yl)amino)piperidin-1-yl)methyl)benzenesulfonamide] had a CC50 in series [1] of 26600 ± 1960 nM. Moreover, the “SI IIIB” value in series [2] is 715. In addition, in series [3], the half-maximal effective concentration (EC50) worked out at 734 ± 337 nM and the “SI RES056” value is 36.
The like results for `Cc1cc(C#N)cc(C)c1Oc1nc(NC2CCN(Cc3ccc(S(C)(=O)=O)cc3)CC2)nc2c1CSC2` [Compound D2, 3,5-dimethyl-4-((2-((1-(4-(methylsulfonyl)benzyl)piperidin-4-yl)amino)-5,7-dihydrothieno[3,4-d]pyrimidin-4-yl)oxy)benzonitrile] were, in that order, 45300 ± 31100 nM, 11690, 170 ± 32 nM and 266.

As usually defined, the CC50 is the concentration giving 50% cytotoxicity. Higher therefore signals better tolerance by the cells. A word on the EC50: it is the concentration that produces a half-maximal response.
